Laboratory results taken from patent publication US20040191842A1, “Chemopreventive and therapeutic aspects of polyphenolic compositions and assays” (Medical College of Georgia Research Institute, Inc., priority 2002, published 2004).

Experiments:
p57 (KIP2) = experiment: Western blot of p57 in SCC25 oral carcinoma cells; assay type: cell-based, human; settings: 50 μM EGCG or 0.2 mg/ml GTPPs, 24 h
Description: Cell treatments. For 24 hours treatments, exponentially growing cells with 40% confluency (to minimize differentiation and spontaneous apoptosis) were either maintained in 50 μM EGCG (2.29 mg/100 ml) or 0.2 mg/ml of GTPPs in tissue culture flasks (25 cm^2). Control flasks contained cells without any treatment. To test whether BaP or NNK interfere with the induction of p57, the human keratinocytes were treated with 0.12 μM BaP, or 10 μM NNK, either alone or in combination with 50 μM EGCG. To examine the time course of p57 induction, cells were treated with 50 μM EGCG and harvested for Western analysis at 30 minutes, 2 hours, 6 hours, and 24 hours. The human keratinocytes were treated when the cell density reached 85-90% confluency (to mimic the epithelium).
Western blot analysis. Cells from different treatment groups were lysed in RIPA buffer (1% NP-40, 1% sodium deoxycholate, 0.1% SDS, 0.15 M NaCl, 0.01 M sodium phosphate, pH 7.2, and 1% Trasylol) containing proteinase inhibitors (1 mM PMSF, 1 μg/ml each of aprotinin, leupeptin, and pepstatin). The concentration of protein in each sample was determined using the BioRad DC Protein Assay and spectrophotometry. Fifty micrograms (μg) of protein from each sample and a BioRad molecular weight standard marker were run on a 10% SDS-PAGE, followed by transfer to nitrocellulose membranes. […]

Apaf-1 = experiment: Western blot of Apaf-1 in epidermal keratinocytes; assay type: cell-based, human; settings: increasing concentrations of EGCG
Description: Western blot analysis. The keratinocytes and the mammary epithelial cells were placed in KGM-2 and MEGM, respectively, overnight prior to treatment. Cells were lysed, after 24-hour treatment, in RIPA buffer (1% NP-40, 1% sodium deoxycholate, 0.1% SDS, 0.15 M NaCl, 0.01 M sodium phosphate, pH 7.2, and 1% Trasylol) containing proteinase inhibitors (1 mM PMSF, 1 μg/ml each of aprotinin, leupeptin, and pepstatin). The concentration of protein in each sample was determined using the BioRad DC Protein Assay and spectrophotometry. 50 μg of protein from each sample and a BioRad molecular weight standard marker were run on a 10% SDS-PAGE, followed by transfer to nitrocellulose membranes. Nonspecific binding to the membranes was blocked with 10% nonfat milk. Primary polyclonal (rabbit) antibodies and a horseradish peroxidase-conjugated goat anti-rabbit secondary antibody were used in conjunction with the ECL Chemiluminescence Kit (Amersham Pharmacia Biotech, New Jersey) and membranes were exposed to radiographic films for detection. Western blots were digitized for comparison of the intensity for each band using the ImageTool image analysis software program (University of Texas Health Science Center, San Antonio, Tex.). The integrated density of each band was measured using identical 1480 pixel areas of each Apfa-1 or Actin band at a scale of densities from 0 to 255. […]

[1] = system: normal human mammary epithelial cells (HMEC); experiment: Morphology of mammary epithelial cells; assay type: cell-based; settings: 50 μM EGCG
Description: Cell lines and cell culture. The normal human keratinocytes (NHEK CC-2507) were purchased from Cambrex (East Rutherford, N.J.) and maintained in KGM-2 medium (Cambrex). The OSC2 cell line was previously described in Example 1. The OSC2 subclones were established by retroviral transfection of the parental OSC2 cell line. These clones were maintained in 45% Dulbecco's Modified Eagle's Medium (DMEM), 45% Ham's F12 medium and 10% fetal calf serum, 100 I.U/ml penicillin, 100 μg/ml streptomycin and 5 μg/ml hydrocortisone. The normal human mammary epithelial cells (HMEC) were maintained in MEGM medium (Cambrex). All cell cultures were maintained in a 37° C. incubator with 5% CO2. Light photographs were taken with a SPOT RT digital camera system (Diagnostic Instruments, Sterling Heights, Mich.) linked to a Nikon Phase Contrast-2 microscope at an original magnification of 400×. Fluorescent photomicrographs were taken with a SPOT color digital camera system using the ZEISS Axiovert 10. Fluorescence was generated by a ZEISS AttoArc 2 source with an original magnification of 400×. Experiments were repeated three times.

caspase 3 [2] = experiment: Caspase 3 activity assay, MCF7(C) caspase 3+ cells; assay type: cell-based, human; settings: increasing EGCG or 0.2 mg/ml GTPPs, 24 h
Description: (§1) Caspase 3 activity assay. The Caspase 3 Apoptosis Detection Kit was purchased from Santa Cruz Biotech. Inc. In a 24 well tissue culture plate, 10^5 cells/well of cells in triplicates were plated. […] To each well, 100 μl of 2×reaction buffer was added with […]. Finally, 5 μl of DEVD-AFC substrate was added to each well containing cell lysates. The reaction mixtures were incubated for 1 hour at 37° C. The caspase 3 activity in each well was measured using a fluorescence microplate reader set for 405 nm excitation and 505 nm emission.

caspase 3 [3] = experiment: Caspase 3 activity assay, caspase 3 null MCF7 cells; assay type: cell-based, human; settings: increasing EGCG or 0.2 mg/ml GTPPs, 24 h
Description: as §1

MCF7 cells = experiment: BrdU incorporation assay, MCF7 cells; assay type: cell-based, human; settings: increasing EGCG
Description: DNA synthesis analysis using BrdU incorporation method. The BrdU cell proliferation kit was purchased from Oncogene Research Products, Boston, Mass. Cells were culture in 96 well plates with 10^4 cells/well. After EGCG and GTPPs treatments, cells were labeled by BrdU, reacted with BrdU antibody and the color reaction was carried out according to the protocol provided by the manufacturer. The coloration was measure by a Thermo MAX microplate reader using wavelengths 450 nm-562 nm.

caspase 14 and p21 = experiment: Caspase 14 and p21 expression in OSC2 cells; assay type: cell-based, human; settings: EGCG
Description: To identify additional factors those suppress EGCG -induced apoptosis and facilitate cell differentiation in NHEK, exponentially growing NHEK (Cambrex, Baltimore, Md.) were exposed to 100 μM EGCG for 0, 2, 6 and 24 hours, prior to total RNA isolation using the Qiagen RNeasy mini kit (Valencia, Calif.), which was followed by RT-PCR labeling and hybridization with the Human Apoptosis Macroarray membrane (Sigma-Genosys, The Woodlands, Tex.). Total cell lysates also were collected following a variety of EGCG treatments. The protein levels for caspase 14 and p21 were determined by immuno-blotting using antibodies specific for caspase 14 and p21 (Santa Cruz Biotechnology, Santa Cruz, Calif.).
Normal human epidermal keratinocytes (NHEK; Cambrex), and oral squamous cell carcinoma (OSC2) cells, originally from gingival tissue, were compared. Exponentially growing cells were exposed to 50 or 100 μM EGCG for 0 hours, 2 hours, 6 hours or 24 hours. Cells were harvested for total RNA, which was examined by apoptosis macroarrays (Sigma Genosys), followed by phosphorimagery and data analysis (GeneSpring). Protein production of expressed genes was confirmed by Western blotting of whole cell lysates.

NHEK = experiment: Light microscopy of NHEK grown alone; assay type: cell-based, human; settings: 100 μM EGCG, 24 hour

In the case of `O=C(O[C@@H]1Cc2c(O)cc(O)cc2O[C@@H]1c1cc(O)c(O)c(O)c1)c1cc(O)c(O)c(O)c1` [EGCG, (−)-epigallocatechin-3-gallate], the p57 levels (p57 (KIP2)) is reported as “remained unchanged”, the Apaf-1 levels (Apaf-1) is reported as “stable basal levels of Apaf-1” and the morphology ([1]; 24 hours) is reported as “little change in morphology”. For the same compound, the cell death ([1]; 48 hours) was “Significant cell death was observed”, the “caspase 3 activation” value (caspase 3 [2]) was “demonstrated activated caspase 3” and the “caspase 3 activity” value (caspase 3 [3]) was “did not show caspase 3 activity”. For the same compound, the BrdU incorporation (MCF7 cells) was “able in incorporate BrdU efficiently”, the “caspase 14 and p21 levels” value (caspase 14 and p21; identical conditions to NHEK) was “failed to show increased caspase 14 or decreased p21” and the “p21 mRNA elevated” value (caspase 14 and p21; within 2 hours) was 3 fold. The cell death (NHEK) was “showed no cell death”.
